Reference: patent publication US9833497B2, “Human originated EGF domain proteins and use of the same” (CHENGDU SOURCEBIO LIMITED-LIABILITY COMPANY, priority 2013, dated 2017)

What was measured:
Assay type in all cases: cell-based
[1] = system: E. coli DH5α; assay: Antibacterial activity: MIC and growth curve against E. coli DH5α in 96-well plate; details: minimal inhibitory concentration against E. coli DH5α; 96-well plate, 5×10^5 CFU/mL, 37° C., judged after 8 h
How it was run: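 Log-phase DH5α (OD600 about 0.5, 37° C, 185 rpm in LB) was pelleted, resuspended in fresh LB and seeded at 5×10^5 CFU/mL with recombinant protein at 50, 25 and 12.5 μg/mL (two-fold series), in triplicate. Plates were shaken at 175 rpm, 37° C, and OD600 was read every 30 min. MIC was the lowest concentration with no growth.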

[2] = system: E. coli BL21; assay: MIC against Gram-negative bacteria: E. coli BL21; details: for MIC / MIC (μg/mL) E. coli BL21: E. coli BL21
How it was run: (§1)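 LB broth cultures at McFarland 0.5, spun down, resuspended, diluted to 5×10^5 CFU/mL final. Two-fold serial dilutions of purified human EGF domain proteins, triplicate. 37° C, 175 rpm shaking. Endpoint: no visible growth.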

[3] = system: Pseudomonas aeruginosa; assay: MIC against Gram-negative bacteria: Pseudomonas aeruginosa
How it was run: as §1

[4] = system: Klebsiella pneumonia; assay: MIC against Gram-negative bacteria: Klebsiella pneumonia
How it was run: as §1

[5] = system: Enterobacter cloacae; assay: MIC against Gram-negative bacteria: Enterobacter cloacae
How it was run: as §1

[6] = system: Aeromonas hydrophila; assay: MIC against Gram-negative bacteria: Aeromonas hydrophila
How it was run: as §1

[7] = system: Citrobacter diversus; assay: MIC against Gram-negative bacteria: Citrobacter diversus
How it was run: as §1

[8] = system: Moraxella catarrhalis; assay: MIC against Gram-negative bacteria: Moraxella catarrhalis
How it was run: as §1

[9] = system: Proteus mirabilis; assay: MIC against Gram-negative bacteria: Proteus mirabilis
How it was run: as §1

[10] = system: Proteus vulgaris; assay: MIC against Gram-negative bacteria: Proteus vulgaris
How it was run: as §1

[11] = system: Serratia marcescens; assay: MIC against Gram-negative bacteria: Serratia marcescens
How it was run: as §1

[12] = P. aeruginosa, 10 h cultivation at 37° C.
[13] = K. pneumonia, 10 h cultivation at 37° C.
[14] = E. cloacae, 10 h cultivation at 37° C.
[15] = A. hydrophila, 10 h cultivation at 37° C.
[16] = C. diversus, 10 h cultivation at 37° C.
[17] = M. catarrhalis, 10 h cultivation at 37° C.
[18] = P. mirabilis, 10 h cultivation at 37° C.
[19] = P. vulgaris, 10 h cultivation at 37° C.
[20] = S. marcescens, 10 h cultivation at 37° C.
[21] = 10 h cultivation at 37° C., 5×10^5 CFU/mL
[22] = P. aeruginosa, 10 h cultivation at 37° C., 5×10^5 CFU/mL
[23] = K. pneumonia, 10 h cultivation at 37° C., 5×10^5 CFU/mL
[24] = E. cloacae, 10 h cultivation at 37° C., 5×10^5 CFU/mL
[25] = A. hydrophila, 10 h cultivation at 37° C., 5×10^5 CFU/mL
[26] = C. diversus, 10 h cultivation at 37° C., 5×10^5 CFU/mL
[27] = M. catarrhalis, 10 h cultivation at 37° C., 5×10^5 CFU/mL
[28] = P. mirabilis, 10 h cultivation at 37° C., 5×10^5 CFU/mL
[29] = P. vulgaris, 10 h cultivation at 37° C., 5×10^5 CFU/mL
[30] = S. marcescens, 10 h cultivation at 37° C., 5×10^5 CFU/mL
[31] = 96-well plate, 5×10^5 CFU/mL, 37° C., 10 h
[32] = 10 h cultivation at 37° C., 5×10^5 CFU/mL, two-fold serial dilution

In the case of “PRT961 (DVDECASTPCRNGAKCVDQPDGYECRCAEGFEGTLCD; listed as Homo sapiens)”, the MIC [1] is reported as 12.5 µg/mL, the MIC ([2]; 10 h cultivation at 37° C.) is reported as 25 µg/mL and the MIC [3, 12] is reported as 100 µg/mL. The MIC [4, 13] was 25 µg/mL, the MIC [5, 14] was 12.5 µg/mL and the MIC [6, 15] was 12.5 µg/mL. The MIC [7, 16] was 25 µg/mL, the MIC [8, 17] was 25 µg/mL and the MIC [9, 18] was 50 µg/mL. For the same substance, the MIC [10, 19] was 12.5 µg/mL and the MIC [11, 20] was 25 µg/mL.
With “PRT229 (DINECLTSSVCPEHSDCVNSMGSYSCSCQVGFISRNSTCE; listed as Homo sapiens)” the MIC [1] was 50 µg/mL, the “MIC (μg/mL) E. coli BL21” value [2, 21] was 25 µg/mL and the “MIC (μg/mL) P. aeruginosa” value [3, 22] was 12.5 µg/mL. For the same substance, the “MIC (μg/mL) K. pneumonia” value [4, 23] was 12.5 µg/mL, the “MIC (μg/mL) E. cloacae” value [5, 24] was 12.5 µg/mL and the “MIC (μg/mL) A. hydrophila” value [6, 25] was 12.5 µg/mL. The “MIC (μg/mL) C. diversus” value [7, 26] was 12.5 µg/mL, the “MIC (μg/mL) M. catarrhalis” value [8, 27] was 12.5 µg/mL and the “MIC (μg/mL) P. mirabilis” value [9, 28] was 12.5 µg/mL. For the same substance, the “MIC (μg/mL) P. vulgaris” value [10, 29] was 25 µg/mL and the “MIC (μg/mL) S. marcescens” value [11, 30] was 12.5 µg/mL.
With “PRT117 (DVDECALGRSPCAQGCTNTDGSFHCSCEEGYVLAGEDGTQCQ; listed as Homo sapiens)” the MIC [1] was 12.5 µg/mL, the “MIC (μg/mL) E. coli BL21” value [2, 31] was 12.5 µg/mL and the “MIC (μg/mL) P. aeruginosa” value ([3]; Pseudomonas aeruginosa, 96-well plate, 5×10^5 CFU/mL, 37° C., 10 h) was 25 µg/mL. The “MIC (μg/mL) K. pneumonia” value ([4]; Klebsiella pneumonia, 96-well plate, 5×10^5 CFU/mL, 37° C., 10 h) was 12.5 µg/mL, the “MIC (μg/mL) E. cloacae” value ([5]; Enterobacter cloacae, 96-well plate, 5×10^5 CFU/mL, 37° C., 10 h) was 25 µg/mL and the “MIC (μg/mL) A. hydrophila” value ([6]; Aeromonas hydrophila, 96-well plate, 5×10^5 CFU/mL, 37° C., 10 h) was 12.5 µg/mL. For the same substance, the “MIC (μg/mL) C. diversus” value ([7]; Citrobacter diversus, 96-well plate, 5×10^5 CFU/mL, 37° C., 10 h) was 25 µg/mL, the “MIC (μg/mL) M. catarrhalis” value ([8]; Moraxella catarrhalis, 96-well plate, 5×10^5 CFU/mL, 37° C., 10 h) was 12.5 µg/mL and the “MIC (μg/mL) P. mirabilis” value ([9]; Proteus mirabilis, 96-well plate, 5×10^5 CFU/mL, 37° C., 10 h) was 25 µg/mL. For the same substance, the “MIC (μg/mL) P. vulgaris” value ([10]; Proteus vulgaris, 96-well plate, 5×10^5 CFU/mL, 37° C., 10 h) was 12.5 µg/mL and the “MIC (μg/mL) S. marcescens” value ([11]; Serratia marcescens, 96-well plate, 5×10^5 CFU/mL, 37° C., 10 h) was 12.5 µg/mL.
In the case of “PRT240 (NINECEVEPCKNGGICTDLVANYSCECPGEFMGRNCQ; listed as Homo sapiens)”, the MIC [1] is reported as 25 µg/mL, the “MIC (μg/mL) E. coli BL21” value [2, 21] is reported as 12.5 µg/mL and the “MIC (μg/mL) P. aeruginosa” value [3, 22] is reported as 25 µg/mL. The “MIC (μg/mL) K. pneumonia” value [4, 23] was 12.5 µg/mL, the “MIC (μg/mL) E. cloacae” value [5, 24] was 25 µg/mL and the “MIC (μg/mL) A. hydrophila” value [6, 25] was 12.5 µg/mL. For the same substance, the “MIC (μg/mL) C. diversus” value [7, 26] was 25 µg/mL, the “MIC (μg/mL) M. catarrhalis” value [8, 27] was 12.5 µg/mL and the “MIC (μg/mL) P. mirabilis” value [9, 28] was 100 µg/mL. For the same substance, the “MIC (μg/mL) P. vulgaris” value [10, 29] was 100 µg/mL and the “MIC (μg/mL) S. marcescens” value [11, 30] was 12.5 µg/mL.
With “PRT548 (CPCPLSVPSNNFAEGCVLRGGRTQCLCKPGYAGASCERCAPGFFGNPLVLGSSCQP; listed as Homo sapiens)” the MIC [1] was 12.5 µg/mL, the “MIC against E. coli BL21” value [2, 31] was 25 µg/mL and the “MIC against P. aeruginosa” value [3, 31] was 50 µg/mL. The “MIC against K. pneumonia” value [4, 31] was 25 µg/mL, the “MIC against E. cloacae” value [5, 31] was 12.5 µg/mL and the “MIC against A. hydrophila” value [6, 31] was 25 µg/mL. The “MIC against C. diversus” value [7, 31] was 50 µg/mL, the “MIC against M. catarrhalis” value [8, 31] was 25 µg/mL and the “MIC against P. mirabilis” value [9, 31] was 12.5 µg/mL. For the same substance, the “MIC against P. vulgaris” value [10, 31] was 25 µg/mL and the “MIC against S. marcescens” value [11, 31] was 50 µg/mL.
Substance “PRT983 (VARSCRELQCPVGVPCQQTPRGPRCACPPGLSGPSCR; listed as Homo sapiens)” has an MIC [1] of 25 µg/mL, an MIC ([2]; 10 h cultivation at 37° C.) of 12.5 µg/mL and an MIC [3, 12] of 25 µg/mL. For the same substance, the MIC [4, 13] was 50 µg/mL, the MIC [5, 14] was 12.5 µg/mL and the MIC [6, 15] was 25 µg/mL. The MIC [7, 16] was 50 µg/mL, the MIC [8, 17] was 12.5 µg/mL and the MIC [9, 18] was 50 µg/mL. The MIC [10, 19] was 12.5 µg/mL and the MIC [11, 20] was 25 µg/mL.
With “PRT1119 (EVLECASAPCEHNASCLEGLGSFRCLCWPGYSGELCE; listed as Homo sapiens)” the MIC [1] was 100 µg/mL, the “MIC E. coli BL21” value [2, 32] was 25 µg/mL and the “MIC P. aeruginosa” value [3, 32] was 50 µg/mL. The “MIC K. pneumonia” value [4, 32] was 25 µg/mL, the “MIC E. cloacae” value [5, 32] was 12.5 µg/mL and the “MIC A. hydrophila” value [6, 32] was 25 µg/mL. The “MIC C. diversus” value [7, 32] was 50 µg/mL, the “MIC M. catarrhalis” value [8, 32] was 25 µg/mL and the “MIC P. mirabilis” value [9, 32] was 12.5 µg/mL. For the same substance, the “MIC P. vulgaris” value [10, 32] was 25 µg/mL and the “MIC S. marcescens” value [11, 32] was 50 µg/mL.
